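Step 1: Grow cells in 96-well plates. Step 2: Expose to compound for 48 hours at 5 concentrations. Step 3: Interpolate endpoints linearly; if unreached, use highest concentration. At the GI50, growth is halved.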 Calls of active or inactive are those of the source. Cut-off read from the data, not from the text of the source: active = GI50 up to about 1.1 µM and inactive = higher.
Tests used:
Test in all cases: DTP human tumour cell line panel, 48 h
[1] = tested on: A549
[2] = tested on: CAKI-1
[3] = tested on: CCRF-CEM
[4] = tested on: DU-145
[5] = tested on: HL-60
[6] = tested on: K562
[7] = tested on: MDA-MB-435
[8] = tested on: MDA-N
[9] = tested on: NCI-H23
[10] = tested on: NCI/ADR-RES
[11] = tested on: OVCAR-4
[12] = tested on: PC-3
[13] = tested on: RPMI-8226
[14] = tested on: SF-539
[15] = tested on: SK-MEL-5
[16] = tested on: SN12C
[17] = tested on: SNB-75
[18] = tested on: U-251
[19] = tested on: UACC-257
[20] = tested on: HOP-92

Measured: GI50

COc1ccc(C2=CC(c3ccc4c(c3)OCO4)c3c(c4ccccc4oc3=O)O2)cc1OC (configuration not stated)
active: [2] 1.1 µM | [5] 0.351 µM | [6] 0.415 µM | [7] 0.366 µM | [8] 0.324 µM | [14] 0.69 µM | [15] 0.766 µM | [17] 0.51 µM
inactive: [1] 2.78 µM | [3] 2.49 µM | [4] 2.25 µM | [9] 2.51 µM | [10] 1.41 µM | [11] 98.4 µM | [12] 2.42 µM | [13] 2.64 µM | [16] 5.56 µM | [18] 1.98 µM | [19] > 100 µM

CC(C)=NN/C(=N\c1ccc(Cl)cc1)NS(=O)(=O)c1ccc(C)cc1
inactive: [1] 62.4 µM | [2] 62.2 µM | [3] > 100 µM | [4] 47.9 µM | [5] 97.5 µM | [20] 38.8 µM | [6] 69.3 µM | [7] 92.9 µM | [8] > 100 µM | [9] > 100 µM | [10] 69.3 µM | [11] 51.1 µM | [12] 41.2 µM | [13] 44.2 µM | [15] 60.3 µM | [16] 84.5 µM | [18] 96.8 µM | [19] 35.2 µM

N#C/C=C(/NC(=O)Nc1ccccc1)N1CCCC1
inactive: [1] > 40.7 µM | [2] > 45.9 µM | [3] > 100 µM | [4] > 50.9 µM | [5] > 100 µM | [20] > 48 µM | [6] > 59.4 µM | [7] > 68.9 µM | [8] > 100 µM | [9] > 49.3 µM | [10] > 39.9 µM | [11] 34.6 µM | [12] > 35.3 µM | [13] > 82 µM | [14] > 47.4 µM | [15] 56.4 µM | [16] > 86.3 µM | [18] > 36.8 µM | [19] 45.6 µM

COc1cc(NCc2ccc3nc(-c4ccccc4)c(N)nc3c2)cc(OC)c1OC
inactive: [1] 30.8 µM | [2] 28.8 µM | [3] 31.6 µM | [4] 36.6 µM | [5] 25.6 µM | [20] 12.5 µM | [6] 41 µM | [7] 22.3 µM | [8] 27.5 µM | [9] 21.4 µM | [10] 22.2 µM | [11] 29.3 µM | [12] 28.2 µM | [14] 29.7 µM | [15] 15.3 µM | [16] 38.5 µM | [17] 19.1 µM | [18] 39.3 µM | [19] 22.7 µM

[N-]=[N+]=NCN1C(=O)C2C3C=CC(C2C1=O)C1C2C(=O)N(CN=[N+]=[N-])C(=O)C2C31 (configuration not stated)
inactive: [1] > 100 µM | [2] > 100 µM | [4] > 100 µM | [20] 12.5 µM | [6] > 100 µM | [7] > 100 µM | [8] > 100 µM | [9] > 100 µM | [10] > 100 µM | [12] > 100 µM | [13] > 100 µM | [14] > 100 µM | [15] > 100 µM | [16] > 100 µM | [19] > 100 µM

O=C1c2ccccc2NC(c2cc(Cl)cc(Cl)c2O)N1CCc1ccccn1 (configuration not stated)
inactive: [1] 48.6 µM | [2] > 100 µM | [4] 46.7 µM | [5] > 100 µM | [20] 52.7 µM | [6] > 100 µM | [7] 68.1 µM | [8] 97.9 µM | [9] > 100 µM | [10] 60.4 µM | [11] 36.8 µM | [12] 24 µM | [13] 34.8 µM | [14] > 100 µM | [15] > 100 µM | [16] 69.8 µM | [17] 42.6 µM | [18] 39.8 µM | [19] 97.9 µM

ClC1=C(Cl)C2OC3C=CCC3OC2C(Cl)=C1Cl (configuration not stated)
inactive: [2] > 100 µM | [3] 40.1 µM | [4] > 100 µM | [5] 36.1 µM | [20] 28.8 µM | [6] 37.8 µM | [7] 56.9 µM | [8] 51.3 µM | [9] 56.4 µM | [10] 53.6 µM | [11] > 100 µM | [12] 39.7 µM | [13] 23 µM | [14] > 100 µM | [15] 29.5 µM | [18] 52.8 µM | [19] 34.5 µM

Cn1cnc(C(N)=[Se])c1N
inactive: [1] 1.71 µM | [2] 3.27 µM | [3] 2.24 µM | [4] 4.1 µM | [20] 6.56 µM | [7] 5.26 µM | [8] 4.98 µM | [9] 3 µM | [10] 1.89 µM | [12] 2.24 µM | [13] 2.94 µM | [14] 2.02 µM | [15] 3.21 µM | [16] 2.29 µM | [17] 2.2 µM | [18] 1.35 µM | [19] 7.24 µM

COc1cccc(-c2nc(-c3cnccn3)n(C3OC(CO)C(O)C3O)n2)c1 (configuration not stated)
inactive: [1] > 100 µM | [3] > 100 µM | [4] > 100 µM | [5] > 100 µM | [20] > 100 µM | [6] > 100 µM | [7] > 100 µM | [8] > 100 µM | [9] > 100 µM | [10] > 100 µM | [11] > 100 µM | [12] > 100 µM | [14] > 100 µM | [15] > 100 µM | [16] > 100 µM | [17] > 100 µM | [18] > 100 µM | [19] > 100 µM

COC(=O)C1=C(C(=O)OC)SC(=C2SC3=C(SC(=C4SCCS4)S3)S2)S1
active: [17] 0.0302 µM
inactive: [1] > 100 µM | [2] > 100 µM | [3] > 100 µM | [4] > 100 µM | [5] > 100 µM | [20] > 100 µM | [6] > 100 µM | [7] > 100 µM | [8] > 100 µM | [9] > 100 µM | [10] > 100 µM | [12] > 100 µM | [13] > 100 µM | [15] > 100 µM | [16] > 100 µM | [18] 93.1 µM | [19] > 100 µM

NNC(=O)c1cc(=O)[nH][nH]1
inactive: [1] > 100 µM | [2] > 100 µM | [3] > 100 µM | [4] > 100 µM | [20] > 100 µM | [6] > 100 µM | [7] > 100 µM | [8] > 100 µM | [9] > 100 µM | [10] > 100 µM | [11] > 100 µM | [12] > 100 µM | [13] > 100 µM | [14] > 100 µM | [15] > 100 µM | [16] > 100 µM | [17] > 100 µM | [18] > 100 µM | [19] > 100 µM

CN1CCN(/C(N)=C(\C#N)C(=O)Nc2ccc(Cl)cc2)CC1
inactive: [1] > 100 µM | [2] 79.8 µM | [3] 30.1 µM | [4] 79.3 µM | [20] > 100 µM | [6] 23 µM | [7] 37.5 µM | [8] 52.4 µM | [9] 67 µM | [10] 87.9 µM | [12] 39.8 µM | [13] 27.5 µM | [14] > 100 µM | [15] 27.5 µM | [16] > 100 µM | [17] > 100 µM | [18] 96.8 µM | [19] 59 µM

COC(=O)CC1C2CC3C(C2=O)C13 (configuration not stated)
inactive: [1] > 100 µM | [2] > 100 µM | [3] > 100 µM | [4] > 100 µM | [5] 33.6 µM | [20] > 100 µM | [6] > 100 µM | [7] > 100 µM | [8] > 100 µM | [9] > 100 µM | [10] > 100 µM | [11] > 100 µM | [12] > 100 µM | [14] > 100 µM | [15] > 100 µM | [16] > 100 µM | [17] 58.1 µM | [18] > 100 µM | [19] > 100 µM

NC(=O)NC(=O)CCC(NS(=O)(=O)c1ccccc1)C(=O)NC(N)=O (configuration not stated)
inactive: [1] > 100 µM | [2] > 100 µM | [3] > 100 µM | [4] > 100 µM | [5] > 100 µM | [20] > 100 µM | [6] > 100 µM | [7] > 100 µM | [8] > 100 µM | [9] > 100 µM | [10] > 100 µM | [11] > 100 µM | [12] > 100 µM | [14] > 100 µM | [15] > 100 µM | [16] > 100 µM | [17] > 100 µM | [18] > 100 µM | [19] > 100 µM

CC1CCCC2(CC[N+](C)(CCC[N+](C)(C)C)CC2)C1 (configuration not stated)
inactive: [1] > 100 µM | [2] > 100 µM | [4] > 100 µM | [5] 5.48 µM | [20] > 100 µM | [6] > 100 µM | [7] > 100 µM | [8] > 100 µM | [10] > 100 µM | [11] > 100 µM | [12] > 100 µM | [13] > 100 µM | [14] > 100 µM | [15] > 100 µM | [16] > 100 µM | [17] > 100 µM | [18] > 100 µM | [19] > 100 µM

Source: ChEMBL document CHEMBL1201862, “PubChem BioAssay data set” (2004)
